Counter-ions that a name gives are not always drawn. Like-named read-outs stand apart in the source and are kept apart here.
What was measured:
NAFLD induced by CHOL = assay: Mouse NAFLD model induced by CHOL, H&E staining; format: in vivo, C57BL/6J male mice; settings: CHOL diet mice, 10, 50, 150 mg/kg by gavage bid, 8 weeks, vs untreated group, FIG. 10
Procedure: • (1) C57BL/6J male mice aged 6 to 8 weeks were selected and randomly divided into normal diet group (n=10) and HFD or CHOL group; the weight changes of the mice were recorded during the modeling period, and the modeling was conducted for 8 weeks (CHOL) or 10 weeks (HFD), then the mice in the HFD or CHOL group were randomly divided into groups according to their body weights, plus the negative control group, a total of 5 groups:
(2) Mice in the negative control group (n=10): The animals were fed with normal diet, and 200 μL of drinking water was administered by gavage, bid.
Mice in HFD or CHOL group (n=10): The animals were fed with HFD or CHOL diet, and 200 μL of normal saline was administered by gavage at the same time, bid. (Note: HFD (60% high fat) feed (Whitby Technology Development (Beijing) Co., Ltd.) (D12492), CHOL (40% high fat +1.25% cholesterol) feed (Whitby Technology Development (Beijing) Co., Ltd.) (D12108C)) (3) Mice in Compound 6-low dose group (n=10): The animals were fed with HFD or CHOL diet, and administrated simultaneously with Compound 6 at a dose of 10 mg/kg by gavage, bid.
(4) Mice in Compound 6-middle dose group (n=10): The animals were fed with HFD or CHOL diet, and administrated simultaneously with Compound 6 at a dose of 50 mg/kg by gavage, bid. […]

[1] = Pharmacokinetic testing in rats; format: in vivo, SD rats
Procedure: Rats were used as test animals to study the pharmacokinetic behavior of the following compounds in rat plasma.
The drugs were self-made according to the examples of the present invention.
SD rats, 6-8 weeks old, 3 for each administration method/example, male.
The animals were fasted overnight, ate food 8 hours after taking the drug, and drank water freely.
Blood was collected before administration and at 5 min, 15 min, 30 min, 1 hr, 2 hr, 4 hr, 8 hr and 24 hr after administration.
The blood was placed on wet ice and centrifuged to obtain plasma sample (2000 g, 5 min at 4° C.).
The LC-MS/MS method was used to determine the blood drug concentration. The HPLC conditions were: mobile phase A: H2O-0.5% FA; mobile phase B: ACN-0.5% FA;
WinNonlin 8.2 non-compartmental model was used to estimate pharmacokinetic parameters (PK parameters, including but not limited to peak concentration (Cmax), time to peak (Tmax), terminal elimination rate (Ke), terminal elimination half-life (T1/2), area under drug-time curve (AUC), clearance rate (CL), apparent volume of distribution (Vd), mean residence time (MRT), bioavailability (F), etc.).

FN = assay: Semi-activated LX2 cells, Western blot: FN protein; format: cell-based; settings: 50-400 μM, 48 hours, FIG. 3, vs 50 μM aspartic acid
[2] = male, SD, rat, plasma, PO 20 mg/kg

| AUC compared with rats administrated with aspartic acid ([1]; PO 20 mg/kg) | Cmax compared with rats administrated with aspartic acid ([1]; PO 20 mg/kg) | Tmax compared with rats administered with aspartic acid ([1]; PO 20 mg/kg) | Cmax ([1]; male, SD, rat, plasma, Compound 6 IV 10 mg/kg, read-out: Cmax of Compound 6) | Cmax ([1]; male, SD, rat, plasma, Compound 6 PO 40 mg/kg, read-out: Cmax of Compound 6) | AUC(0-t) [1, 2] | Tmax [1, 2] | Cmax ([1]; male, SD, rat, plasma, PO 20 mg/kg, read-out: Cmax) | SMILES | lipid droplet aggregation in the liver tissue of mice (H&E) (NAFLD induced by CHOL) | inhibitory effect on FN protein expression as compared to ASP (FN) |
| --- | --- | --- | --- | --- | --- | --- | --- | --- | --- | --- |
| significantly higher | significantly higher | significantly smaller | 6100 ng/mL | 22500 ng/mL | 71300 ng·h/mL | 30 min | 14800 ng/mL | COC(=O)C[C@H](N)C(=O)O [Compound 6] | reduced in a dose-dependent manner | – |
| – | – | – | – | – | – | – | – | COC(=O)C[C@H](N)C(=O)OCOC(=O)[C@@H](N)CC(=O)OC [Compound 54, 4-dimethyl O′1,01-methylene (2S,2'S)-bis (2-aminosuccinate) hydrochloride] | – | stronger inhibitory effects |
